PubChem BioAssay AID1845194 (Molecular Pharmacology Branch, DTP, NCI, 2023)
pIC50: −log10 of the molar value.

Test system: 287954-098-R-J1 tumor spheroid viability
Assay: Anticancer human tumor 287954-098-R-J1 patient-derived Ewing sarcoma cell line growth inhibition
Settings: spheroids with HUVEC and MSC; for pIC50: curve of first compound; for viability, T/C: stronger effect = lower value
Summary of the method: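 Complex spheroids of malignant cells with endothelial cells and mesenchymal stem cells; agents alone or combined, from near clinical Cmax (or 10 microM if unknown) down in half-log steps, 0.25% DMSO final.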

[1] = second compound 1 µM, first compound 0.0316 µM
[2] = second compound 1 µM, first compound 0.1 µM
[3] = second compound 1 µM, first compound 0.316 µM
[4] = second compound 1 µM, first compound 1 µM
[5] = second compound 1 µM, first compound 3.16 µM
[6] = second compound 1 µM, first compound 10 µM
[7] = second compound 3.16 µM, first compound 0.0316 µM
[8] = second compound 3.16 µM, first compound 0.1 µM
[9] = second compound 3.16 µM, first compound 0.316 µM
[10] = second compound 3.16 µM, first compound 1 µM
[11] = second compound 3.16 µM, first compound 3.16 µM
[12] = second compound 3.16 µM, first compound 10 µM
[13] = second compound 10 µM, first compound 0.0316 µM
[14] = second compound 10 µM, first compound 0.1 µM
[15] = second compound 10 µM, first compound 0.316 µM
[16] = second compound 10 µM, first compound 1 µM
[17] = second compound 10 µM, first compound 3.16 µM
[18] = second compound 10 µM, first compound 10 µM
[19] = second compound 31.6 µM, first compound 0.0316 µM
[20] = second compound 31.6 µM, first compound 0.1 µM
[21] = second compound 31.6 µM, first compound 0.316 µM
[22] = second compound 31.6 µM, first compound 1 µM
[23] = second compound 31.6 µM, first compound 3.16 µM
[24] = second compound 31.6 µM, first compound 10 µM
[25] = second compound 100 µM, first compound 0.0316 µM
[26] = second compound 100 µM, first compound 0.1 µM
[27] = second compound 100 µM, first compound 0.316 µM
[28] = second compound 100 µM, first compound 1 µM
[29] = second compound 100 µM, first compound 3.16 µM
[30] = second compound 100 µM, first compound 10 µM
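Further: spheroids exposed to compound for 7 days before viability readout.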
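Wherever viability, T/C is given: luminescent signal taken as surrogate of viable cell content; 100% = DMSO vehicle control viability and lower means growth inhibition.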

| Structure (SMILES) | pIC50 (second compound 1 µM) | pIC50 (second compound 3.16 µM) | pIC50 (second compound 10 µM) | pIC50 (second compound 31.6 µM) | pIC50 (second compound 100 µM) | viability, T/C [1] [%] | viability, T/C [2] [%] | viability, T/C [3] [%] | viability, T/C [4] [%] | viability, T/C [5] [%] | viability, T/C [6] [%] | viability, T/C [7] [%] | viability, T/C [8] [%] | viability, T/C [9] [%] | viability, T/C [10] [%] | viability, T/C [11] [%] | viability, T/C [12] [%] | viability, T/C [13] [%] | viability, T/C [14] [%] | viability, T/C [15] [%] | other results |
| --- | --- | --- | --- | --- | --- | --- | --- | --- | --- | --- | --- | --- | --- | --- | --- | --- | --- | --- | --- | --- | --- |
| CC(C)n1c(=O)n(C)c2cnc3cc(F)c(-c4ccc(OCCCN5CCCCC5)nc4)cc3c21 + Cn1nnc2c(C(N)=O)ncn2c1=O | < 5.00 | < 5.00 | < 5.00 | < 5.00 | < 5.00 | 97 | 97.6 | 110 | 108 | 105 | 97.9 | 106 | 110 | 110 | 112 | 118 | 85.9 | 109 | 105 | 104 | viability, T/C [16]: 109%; viability, T/C [17]: 118%; viability, T/C [18]: 79.6%; viability, T/C [19]: 113%; viability, T/C [20]: 110%; viability, T/C [21]: 105%; viability, T/C [22]: 113%; viability, T/C [23]: 113%; viability, T/C [24]: 85.2%; viability, T/C [25]: 92.5%; viability, T/C [26]: 104%; viability, T/C [27]: 94.3%; viability, T/C [28]: 112%; viability, T/C [29]: 109%; viability, T/C [30]: 103% |
| COc1ccc([C@@H](O)c2cc(-c3ncnc4cc(N5CCOCC5)ccc34)c(F)cc2Cl)nn1 + Cn1nnc2c(C(N)=O)ncn2c1=O | < 5.00 | < 5.00 | < 5.00 | < 5.00 | < 5.00 | 107 | 109 | 109 | 112 | 101 | 92.8 | 105 | 105 | 104 | 107 | 101 | 94.5 | 107 | 106 | 101 | viability, T/C [16]: 105%; viability, T/C [17]: 105%; viability, T/C [18]: 101%; viability, T/C [19]: 103%; viability, T/C [20]: 111%; viability, T/C [21]: 105%; viability, T/C [22]: 112%; viability, T/C [23]: 110%; viability, T/C [24]: 97%; viability, T/C [25]: 102%; viability, T/C [26]: 110%; viability, T/C [27]: 104%; viability, T/C [28]: 109%; viability, T/C [29]: 96.9%; viability, T/C [30]: 84% |
